Experimental findings from ChEMBL document CHEMBL1135290, “Synthesis of sub-micromolar inhibitors of MraY by exploring the region originally occupied by the diazepanone ring in the liposidomycin structure” (Bioorg Med Chem Lett, 2002) are described below.

In general, MIC refers to the least concentration at which growth counts as inhibited. For orientation: IC50 means the point on the concentration scale where inhibition reaches its midpoint. A higher IC50 goes with a need for much substance.

The test system of one experiment is Enterococcus faecium. Briefly: Tested in vitro for antibacterial activity against Enterococcus faecium using micro-broth dilution method. It counts as functional. In general terms: Broth dilution looks for growth in wells or tubes with falling amounts of substance.
The next experiment relates to Escherichia coli. Briefly: Tested in vitro for antibacterial activity against Escherichia coli using micro-broth dilution method. It counts as functional.
Another experiment concerns Staphylococcus aureus. The experiment in a line: Tested in vitro for antibacterial activity against Staphylococcus aureus using micro-broth dilution method. Format: functional.
Another experiment deals with Streptococcus pyogenes. Briefly: Tested in vitro for antibacterial activity against Streptococcus pyogenes using micro-broth dilution method. Format: functional.
Experiment [1] in a line: Inhibitory activity against Translocase I.

As for `CCCCCCCCCCCCNC[C@H](O[C@@H]1O[C@H](CN)[C@@H](O)[C@H]1O)[C@@H]1C[C@@H](O)[C@H](n2ccc(=O)[nH]c2=O)O1.O=C(O)C(F)(F)F`, the minimal inhibitory concentration (MIC) against Enterococcus faecium was found to be 20 µg/mL; in the experiment on Escherichia coli, 2.5 µg/mL; in the experiment on Staphylococcus aureus, 5 µg/mL; against Streptococcus pyogenes it was 2.5 µg/mL. Besides, the IC50 in experiment [1] is 700 nM.
Turning to `CCCCCCCCCCNC[C@H](O[C@@H]1O[C@H](CN)[C@@H](O)[C@H]1O)[C@@H]1C[C@@H](O)[C@H](n2ccc(=O)[nH]c2=O)O1.O=C(O)C(F)(F)F`, the MIC with Enterococcus faecium was found to be 80 µg/mL; against Escherichia coli, 40 µg/mL; in the experiment on Staphylococcus aureus, 40 µg/mL; in the experiment on Streptococcus pyogenes, 20 µg/mL. In addition, the IC50 in experiment [1] came out at 330 nM.
Turning to `CCCCCCCCCCCCCCNC[C@H](O[C@@H]1O[C@H](CN)[C@@H](O)[C@H]1O)[C@@H]1C[C@@H](O)[C@H](n2ccc(=O)[nH]c2=O)O1.O=C(O)C(F)(F)F`, the MIC against Enterococcus faecium was 10 µg/mL; in the experiment with Escherichia coli, 2.5 µg/mL; against Staphylococcus aureus it was 2.5 µg/mL; in the experiment with Streptococcus pyogenes, 2.5 µg/mL. The compound further gave an IC50 in experiment [1] of 590 nM.
As for `CCCCCCCCNC[C@H](O[C@@H]1O[C@H](CN)[C@@H](O)[C@H]1O)[C@@H]1C[C@@H](O)[C@H](n2ccc(=O)[nH]c2=O)O1.O=C(O)C(F)(F)F`, the MIC against Enterococcus faecium is 80 µg/mL; with Escherichia coli, above 80 µg/mL; in the experiment on Staphylococcus aureus, above 80 µg/mL; against Streptococcus pyogenes, above 80 µg/mL. In addition, in experiment [1], the midpoint of inhibition, the IC50, lay at 820 nM.
Regarding `CCCCCNC[C@H](O[C@@H]1O[C@H](CN)[C@@H](O)[C@H]1O)[C@@H]1C[C@@H](O)[C@H](n2ccc(=O)[nH]c2=O)O1.O=C(O)C(F)(F)F`, the MIC against Enterococcus faecium, in the experiment with Escherichia coli, against Staphylococcus aureus and against Streptococcus pyogenes was above 80 µg/mL in each case. Also, half-maximal inhibition in experiment [1] (IC50) required 900 nM.
